Laboratory results published in patent publication US12104176B2, “Efficient cell culture system for hepatitis C virus genotype 6A” (priority 2018, dated 2024).
Like-named read-outs stand apart in the source and are kept apart here. Marks after values point to notes of the source that are not given here.

How the values were obtained:
TN (1a) = assay: Concentration-response treatment of infected Huh7.5 cells, TN (1a) control virus; conditions: Hepatitis C virus, Huh7.5, read-out: EC50, nM (95% CI), TN (1a)
Experimental: (§1) Huh7.5 cells were seeded in 96-well plates and then infected with the indicated viruses. TN (1a) was used as a comparative control. 24 h after infection, cells were treated with the indicated NS5A inhibitor for 48 h. Values are means of triplicates±SEM. Concentration-response curves were calculated as previously described^26.
(§2) All concentration-response treatment experiments were performed using established methods^16,18,26. For half-maximal effective concentration (EC50) value calculations, a sigmoidal concentration-response curve was fitted using GraphPad Prism 6^18,26.

HK6a (6a) = assay: Concentration-response treatment of infected Huh7.5 cells, HK6a full-length virus; conditions: for EC50: Hepatitis C virus, Huh7.5, read-out: EC50, nM (95% CI), HK6a (6a); for Fold to TN, HK6a (6a): fold change in EC50 compared to TN
Experimental: as §1, §2

HK2 (6a) = conditions: for EC50: Hepatitis C virus, Huh7.5, read-out: EC50, nM (95% CI), HK2 (6a); for Fold to TN, HK2 (6a): fold change in EC50 compared to TN
Experimental: as §1, §2

[1] = tested on: HK6a-VELesc/PIB(3 nM)esc, V21A + L28S + L31V (NS5A); assay type: cell-based, HCV genotype 6a; conditions: HK6a-VELesc/PIB(3 nM)esc vs original HK6a
HK6a-VELesc, L31V (NS5A) = assay type: cell-based, HCV genotype 6a; conditions: HK6a-VELesc vs original HK6a
[2] = tested on: HK6a velpatasvir escape virus harboring NS5A-L31V; assay type: cell-based; conditions: pibrentasvir 0.3, 3 and 10 nM
[3] = tested on: HK6a-SOFesc, S282T (NS5B); assay type: cell-based, HCV genotype 6a; conditions: HK6a-SOFesc vs original HK6a
[4] = tested on: HK6a-SOFesc/VELesc, S282T (NS5B)/L28S (NS5A); assay type: cell-based, HCV genotype 6a; conditions: HK6a-SOFesc/VELesc (L28S) vs original HK6a
[5] = tested on: HK6a-VELesc/PIB(10 nM)esc, L28S + L31V (NS5A); assay type: cell-based, HCV genotype 6a; conditions: HK6a-VELesc/PIB(10 nM)esc (L28S+L31V) vs original HK6a
[6] = tested on: HK6a full-length virus (original); conditions: for day from which no HCV-antigen positive cells were detectable: HK6a original virus; for outcome of long-term treatment (resistance selection) / outcome of long-term treatment: HK6a; for outcome of long-term treatment: velpatasvir (10 nM) and sofosbuvir (570 nM), individually or combined
Experimental: Long-term treatment was performed for HK6a viruses as described in Materials and Methods. (A): Percentage HCV-antigen positive cells determined by evaluation of Core/NS5A-antigen positive versus total number of cells during treatment (y-axis) at the indicated time points (x-axis) (top panel). […] Changes in HCV RNA levels (y-axis) related to day 0 (treatment initiated), were determined from supernatants at corresponding time-points (x-axis) (bottom panel)^18. (B-D): Combination treatment of sofosbuvir (570 nM) and different concentrations of velpatasvir [0.1(10x−EC50), 1(100x−EC50), 10(1000x−EC50) nM], were performed with HK6a escape viruses compared with original viruses.
For long-term DAA treatments, Huh7.5 cells were infected with second-passage supernatants of HK2(H77_3′XSLI)-17m or HK6a(FL)-12m viruses (Table 1, FIG. 1F). […] Treatments were carried out in T25 flasks, and drugs were diluted in medium at the indicated concentration. Drugs were added every 2-3 days when cells were split. HCV RNA levels were determined using supernatants collected at indicated time points as described^18. The percentage of HCV positive cells, at indicated time-points, was determined by immunostaining, and supernatants were collected and stored at −80° C. for further analysis. At day 25 after initiation of treatment, cultures with no detectable HCV positive cells were divided into 2 flasks, and one of the replicates was cultured without drug. These untreated cultures were followed for 2 weeks and if no HCV positive cells were detected by immunostaining, the infection was considered cleared.

HK2-VELesc, L31V (NS5A) = assay type: cell-based, HCV genotype 6a; conditions: HK2-VELesc vs original HK2
HK2cc = assay: microbe, parasite or virus in culture; assay type: cell-based; conditions: Hepatitis C virus; HK2cc in separate experiment of FIG. 4
HK2-SOFesc, S282T (NS5B) = assay type: cell-based, HCV genotype 6a; conditions: HK2-SOFesc vs original HK2
[7] = tested on: escape viruses with RAS NS5B-S282T (HK2 and HK6a); assay type: cell-based, HCV genotype 6a; conditions: escape viruses generated in drug-free cultures, FIGS. 4A, B
[8] = tested on: HK2cc recombinant viruses with NS5B-S282T
[9] = tested on: velpatasvir escape viruses of HK2 and HK6a (NS5A-L31V); assay type: cell-based, HCV genotype 6a; conditions: drug-free passage stocks of HK2 and HK6a escape viruses, FIG. 3A
[10] = Huh7.5 cells, treated 24 h after infection for 48 h, ni = not inhibited at highest concentration used

Compound | EC50 (TN (1a)) | EC50 (HK6a (6a)) | Fold to TN, HK6a (6a) (HK6a (6a)) | EC50 (HK2 (6a)) | Fold to TN, HK2 (6a) (HK2 (6a)) | other results
COc1ccc2c(c1)[C@@H]1C[C@]1(C(=O)N1[C@@H]3CC[C@H]1CN(C)C3)Cn1c-2c(C2CCCCC2)c2ccc(C(=O)NS(=O)(=O)N(C)C)cc21 [Beclabuvir] | 5.3 nM | 34.1 nM | 6.4 fold | 28.1 nM | 5.3 fold | 
COC(=O)N[C@H](C(=O)N1CCC[C@H]1c1nc(-c2ccc(-c3ccc(-c4c[nH]c([C@@H]5CCCN5C(=O)[C@@H](NC(=O)OC)C(C)C)n4)cc3)cc2)c[nH]1)C(C)C [Daclatasvir] | 0.019 nM | 0.014 nM |  |  |  | 
COc1c(-c2ccc3cc(NS(C)(=O)=O)ccc3c2)cc(-n2ccc(=O)[nH]c2=O)cc1C(C)(C)C [Dasabuvir] | 35.5 nM | 434 nM | 12.2 fold | 267 nM | 7.5 fold | 
COC(=O)N[C@H](C(=O)N1CCC[C@H]1c1nc(-c2ccc3c(c2)O[C@@H](c2ccccc2)n2c-3cc3cc(-c4c[nH]c([C@@H]5CCCN5C(=O)[C@@H](NC(=O)OC)C(C)C)n4)ccc32)c[nH]1)C(C)C [Elbasvir] | 0.006 nM | 0.009 nM | 1.5 fold | 0.017 nM | 2.8 fold | 
CNC(=O)c1c(-c2ccc(F)cc2)oc2cc(N(CCO)S(C)(=O)=O)c(C3CC3)cc12 [HCV-796] | 26 nM | 131 nM | 5.0 fold | 24 nM | 0.9 fold | 
COC(=O)N[C@H](C(=O)N1CC2(CC2)C[C@H]1c1nc(-c2ccc3c(c2)C(F)(F)c2cc(-c4ccc5[nH]c([C@@H]6[C@H]7CC[C@H](C7)N6C(=O)[C@@H](NC(=O)OC)C(C)C)nc5c4)ccc2-3)c[nH]1)C(C)C [Ledipasvir] | 0.005 nM | 0.346 nM | 69.2 fold | 0.228 nM | 45.6 fold | 
CC(C)(C)C#Cc1cc(N(C(=O)[C@H]2CC[C@H](C)CC2)[C@H]2CC[C@H](O)CC2)c(C(=O)O)s1 [Lomibuvir] | 27.6 nM | > 4000 nM |  | > 4000 nM |  | EC50, nM (95% CI), HK6a (6a) (HK6a (6a); [10]): ni; EC50, nM (95% CI), HK2 (6a) (HK2 (6a); [10]): ni
CC(C)OC(=O)[C@@H](C)N[P@@](=O)(OC[C@H]1O[C@@H](n2ccc(=O)[nH]c2=O)[C@](C)(Cl)[C@@H]1O)Oc1ccccc1 [MK-3682] | 392 nM | 522 nM | 1.3 fold | 370 nM | 0.9 fold | 
COC(=O)N[C@H](C(=O)N1CCC[C@H]1C(=O)Nc1ccc([C@@H]2CC[C@@H](c3ccc(NC(=O)[C@@H]4CCCN4C(=O)[C@@H](NC(=O)OC)C(C)C)cc3)N2c2ccc(C(C)(C)C)cc2)cc1)C(C)C [Ombitasvir] | 0.002 nM | 2.2 nM | 1100.0 fold | 0.6 nM | 300.0 fold | 
COC(=O)N[C@H](C(=O)N1CCC[C@H]1c1nc2cc([C@H]3CC[C@H](c4cc5nc([C@@H]6CCCN6C(=O)[C@@H](NC(=O)OC)[C@@H](C)OC)[nH]c5cc4F)N3c3cc(F)c(N4CCC(c5ccc(F)cc5)CC4)c(F)c3)c(F)cc2[nH]1)[C@@H](C)OC [Pibrentasvir] | 0.004 nM | 0.004 nM | 1.0 fold | 0.002 nM | 0.6 fold | Fold-change EC50 to original virus [1]: 85.500 fold; Fold-change EC50 to original virus (HK6a-VELesc, L31V (NS5A)): 1 fold; outcome of long-term treatment [2]: escaped the treatment at all concentrations; Fold-change EC50 to original virus [3]: 1 fold; Fold-change EC50 to original virus [4]: 250 fold; Fold-change EC50 to original virus [5]: 79.000 fold; day from which no HCV-antigen positive cells were detectable ([6]; pibrentasvir 0.3 nM): 7 days; day from which no HCV-antigen positive cells were detectable ([6]; pibrentasvir 3 nM): 5 days; day from which no HCV-antigen positive cells were detectable ([6]; pibrentasvir 10 nM): 5 days; outcome of long-term treatment (resistance selection) ([6]; PIB 0.3 nM): Infection cleared; outcome of long-term treatment (resistance selection) ([6]; PIB 3 nM): Infection cleared; outcome of long-term treatment (resistance selection) ([6]; PIB 10 nM): Infection cleared; Fold-change EC50 to original virus (HK2-VELesc, L31V (NS5A)): 1 fold
CC(C)OC(=O)[C@H](C)N[P@](=O)(OC[C@H]1O[C@@H](n2ccc(=O)[nH]c2=O)[C@](C)(F)[C@@H]1O)Oc1ccccc1 [Sofosbuvir] | 481 nM | 513 nM | 1.1 fold | 393 nM | 0.8 fold | EC50 (HK2cc): 653 nM; Fold-change EC50 to original virus (HK2-SOFesc, S282T (NS5B)): 7.9 fold; Fold-change EC50 to original virus [3]: ≥8^d fold; fold increase in EC50 [7]: ≥ 8 fold; fold lower sensitivity compared with HK2cc [8]: 3 to 5 fold; outcome of long-term treatment [6]: failed to fully suppress the infection
COC[C@H]1C[C@@H](c2nc(-c3ccc4c(c3)COc3cc5c(ccc6nc([C@@H]7CC[C@H](C)N7C(=O)[C@@H](NC(=O)OC)C(C)C)[nH]c65)cc3-4)c[nH]2)N(C(=O)[C@H](NC(=O)OC)c2ccccc2)C1 [Velpatasvir] | 0.005 nM | 0.011 nM | 2.2 fold | 0.007 nM | 1.4 fold | Fold-change EC50 to original virus [1]: ≥992.928^d fold; Fold-change EC50 to original virus (HK6a-VELesc, L31V (NS5A)): 2384 fold; fold increase in EC50 in comparison with the pre-treatment virus [9]: 2- to 3 thousand; Fold-change EC50 to original virus [3]: 1 fold; Fold-change EC50 to original virus [4]: ~58.000 fold; Fold-change EC50 to original virus ([4]; listed as VEL): 58.105 fold; Fold-change EC50 to original virus [5]: > 899.000 fold; Fold-change EC50 to original virus ([5]; listed as VEL): ≥899.214^d fold; outcome of long-term treatment [6]: failed to fully suppress the infection; Fold-change EC50 to original virus (HK2-VELesc, L31V (NS5A)): 3066 fold
